Experimental data reported in PMC7029871, “Development and validation of a sensitive LC-MS/MS method for the quantitation of IMB-YH-4py5-2H, an antituberculosis candidate, and its application to the pharmacokinetic study” (PLoS ONE, 2020).

What was measured:
[1] = test system: intracellular M. tuberculosis H37Rv; assay: Intracellular activity assay in infected macrophages; format: cell-based, Mycobacterium tuberculosis; conditions: three-day incubation, infected J744 macrophages, untreated 6.47±0.04
[2] = cited from earlier work
[3] = parameters: method as in PMID 26579477; conditions: oral administration of 200 mg/kg; cited from earlier work

SMILES	Log10CFU ([1]; 0.5 μg/mL) [Log10CFU]	Log10CFU ([1]; 1 μg/mL) [Log10CFU]	Log10CFU ([1]; 2 μg/mL) [Log10CFU]	solubility [2]	serum Cmax [3]	time until serum level decreased below the therapeutic range [3]
NNC(=O)c1ccncc1 [Isoniazid, reference compound]	4.60±0.05	3.57±0.06	4.01±0.14	–	–	–
COC(=O)/C=C/C(=O)c1ccc(OC)cc1 [YH-8, (E)-Methyl-4-aryl-4-oxabut-2-enoate, reference compound]	–	–	–	poor solubility	lower than 0.5 μg/mL	less than 1 hour
